The assay deals with Traf2- and Nck-interacting kinase (TNIK) (Homo sapiens, UniProt Q9UKE5). Briefly: ATP competition binding assay (KdELECT, KINOMEscan), triplicate 11-point dose-response curves.

The Ki is the equilibrium dissociation constant of an inhibitor or competing ligand from its target. A high value points to a looser hold on the target.

Molecules are shown by their SMILES.

Chain of Traf2- and Nck-interacting kinase (TNIK) (Q9UKE5 whole entry): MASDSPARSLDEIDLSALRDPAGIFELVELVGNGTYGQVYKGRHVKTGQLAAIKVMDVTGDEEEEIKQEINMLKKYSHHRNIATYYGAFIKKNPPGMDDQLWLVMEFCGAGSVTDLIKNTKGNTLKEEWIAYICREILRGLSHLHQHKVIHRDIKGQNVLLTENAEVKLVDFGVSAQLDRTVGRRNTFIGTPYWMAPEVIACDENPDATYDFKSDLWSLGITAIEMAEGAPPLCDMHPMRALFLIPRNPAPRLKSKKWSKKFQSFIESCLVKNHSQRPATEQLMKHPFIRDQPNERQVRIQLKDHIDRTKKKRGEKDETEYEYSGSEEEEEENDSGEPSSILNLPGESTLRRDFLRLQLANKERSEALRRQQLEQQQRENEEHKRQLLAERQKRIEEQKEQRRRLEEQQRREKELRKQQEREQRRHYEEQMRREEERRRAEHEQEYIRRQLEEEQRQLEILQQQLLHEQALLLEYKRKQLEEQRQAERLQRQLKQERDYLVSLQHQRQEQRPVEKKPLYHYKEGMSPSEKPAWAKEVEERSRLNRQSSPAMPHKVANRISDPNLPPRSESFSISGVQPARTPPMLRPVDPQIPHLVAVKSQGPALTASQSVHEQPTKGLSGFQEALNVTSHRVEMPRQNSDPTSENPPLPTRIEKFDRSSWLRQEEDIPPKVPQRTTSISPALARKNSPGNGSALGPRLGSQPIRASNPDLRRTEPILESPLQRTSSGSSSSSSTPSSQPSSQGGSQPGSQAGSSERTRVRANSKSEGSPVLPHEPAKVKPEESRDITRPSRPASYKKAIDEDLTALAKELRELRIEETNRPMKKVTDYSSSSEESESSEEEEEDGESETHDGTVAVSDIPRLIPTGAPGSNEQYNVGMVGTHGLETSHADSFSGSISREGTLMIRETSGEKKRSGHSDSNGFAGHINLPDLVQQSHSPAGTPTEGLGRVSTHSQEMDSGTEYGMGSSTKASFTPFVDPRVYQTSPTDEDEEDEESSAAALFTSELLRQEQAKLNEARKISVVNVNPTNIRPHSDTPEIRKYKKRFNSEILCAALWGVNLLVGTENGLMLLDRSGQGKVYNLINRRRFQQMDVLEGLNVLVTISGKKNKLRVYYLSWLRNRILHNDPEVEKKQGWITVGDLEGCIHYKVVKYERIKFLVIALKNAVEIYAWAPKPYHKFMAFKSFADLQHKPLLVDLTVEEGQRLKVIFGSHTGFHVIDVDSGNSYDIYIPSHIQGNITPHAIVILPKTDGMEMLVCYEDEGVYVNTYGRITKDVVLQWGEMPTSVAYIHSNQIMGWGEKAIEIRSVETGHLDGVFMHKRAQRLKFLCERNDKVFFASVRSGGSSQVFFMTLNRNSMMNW

In turn, `Cc1ccc(C(=O)Nc2sc(Nc3ccccc3)nc2C(N)=O)cc1` [KY-05009, 5-(4-methylbenzamido)-2-(phenylamino)thiazole-4-carboxamide] showed a Ki of 100 nM.
